pIC50: −log10 of the molar value.
How the values were obtained:
[1] = test system: PC-3 cells; assay: PC-3 cell viability analysis (MTT); type: cell-based, human; conditions: inducing apoptotic death in PC-3 cells / PC-3 cell viability; read-out: IC50 PC-3
Method: Cell Culture PC-3 (p53−/−) human androgen-nonresponsive prostate cancer cells were purchased from the American […] (Manassas, Va.). Cells were cultured in RPMI 1640 medium (Gibco, Grand Island, N.Y.) supplemented with 10% fetal bovine serum (FBS; Gibco) at 37° C. in a humidified incubator containing 5% CO2.
Cell viability analysis The effect of 4-[5-(4-methylphenyl)-3-(trifluoromethyl)-1H-pyrazol-1-yl]benzenesulfonamide and its derivatives on PC-3 cell viability was assessed by using the MTT {[3-(4,5-dimethylthiazol-2-yl)-2,5-diphenyl-2H-tetrazolium bromide]} assay in six replicates. Cells were grown in 10% FBS-supplemented RPMI 1640 medium in 96-well, flat bottomed plates for 24 h, and were exposed to various concentrations of compounds 1-36 dissolved in DMSO (final concentration≦0.1%) in 1% serum-containing RPMI 1640 medium for different time intervals. Controls received DMSO vehicle at a concentration equal to that in drug-treated cells. The medium was removed, replaced by 200 μl of 0.5 mg/ml of MTT in 10% FBS-containing RPMI-1640 medium, and cells were incubated in the CO2 incubator at 37° C. for 2 h. Supernatants were removed from the wells, and the reduced MTT dye was solubilized in 200 μL/well DMSO. Absorbance at 570 nm was determined on a plate reader.

[2] = test system: SNB-19; assay: NCI DTP cell line screen (SRB), CNS Cancer; type: cell-based, human
Method: (§1) Screening of compounds 70 and 71 against several cancer cell lines The human tumor cell lines of the cancer screening panel are grown in RPMI 1640 medium containing 5% fetal bovine serum and 2 mM L-glutamine. For a typical screening experiment, cells are inoculated into 96 well microtiter plates in 100 μL at plating densities ranging from 5,000 to 40,000 cells/well depending on the doubling time of individual cell lines. After cell inoculation, the microtiter plates are incubated at 37° C., 5% CO2, 95% air and 100% relative humidity for 24 h prior to addition of experimental drugs.
(§2) After 24 h, two plates of each cell line are fixed in situ with TCA, to represent a measurement of the cell population for each cell line at the time of drug addition (Tz). Experimental drugs are solubilized in dimethyl sulfoxide at 400-fold the desired final maximum test concentration and stored frozen prior to use. At the time of drug addition, an aliquot of frozen concentrate is thawed and diluted to twice the desired final maximum test concentration with complete medium containing 50 μg/ml gentamicin. Additional four, 10-fold or ½ log serial dilutions are made to provide a total of five drug concentrations plus control. Aliquots of 100 μl of these different drug dilutions are added to the appropriate microtiter wells already containing 100 μl of medium, resulting in the required final drug concentrations.
(§3) Following drug addition, the plates are incubated for an additional 48 h at 37° C., 5% CO2, 95% air, and 100% relative humidity. For adherent cells, the assay is terminated by the addition of cold TCA. Cells are fixed in situ by the gentle addition of 50 μl of cold 50% (w/v) TCA (final concentration, 10% TCA) and incubated for 60 minutes at 4° C. The supernatant is discarded, and the plates are washed five times with tap water and air dried. Sulforhodamine B (SRB) solution (100 μl) at 0.4% (w/v) in 1% acetic acid is added to each well, and plates are incubated for 10 minutes at room temperature. After staining, unbound dye is removed by washing five times with 1% acetic acid and the plates are air dried. Bound stain is subsequently solubilized with 10 mM trizma base, and the absorbance is read on an automated plate reader at a wavelength of 515 nm. For suspension cells, the methodology is the same except that the assay is terminated by fixing settled cells at the bottom of the wells by gently adding 50 μl of 80% TCA (final concentration, 16% TCA). Using the seven absorbance measurements [time zero, (Tz), control growth, (C), and test growth in the presence of drug at the five concentration levels (Ti)], the percentage growth is calculated at each of the drug concentrations levels. Percentage growth inhibition is calculated as: [(Ti−Tz)/(C−Tz)]×100 for concentrations for which Ti>/=Tz [(Ti−Tz)/Tz]×100 for concentrations for which Ti<Tz
(§4) Three dose response parameters are calculated for each experimental agent. […] The drug concentration resulting in total growth inhibition (TGI) is calculated from Ti=Tz. […] Values are calculated for each of these three parameters if the level of activity is reached; however, if the effect is not reached or is exceeded, the value for that parameter is expressed as greater or less than the maximum or minimum concentration tested.
(§5) The methods described were used to test compounds 70 and 71 on a panel of sixty cell lines under a screening service provided by the Developmental Therapeutics Program at the National Institutes of Health. Shown in FIG. 1C are 1, RPMI-8226 leukemia cells; 2; NCI-H322M non-small cell lung cancer cells; 3, HT29 colon cancer cells; 4, U251 CNS cancer cells; 5, SK-MEL-28 melanoma cancer cells; 6, SK-OV-3 ovarian cancer cells; 7, RXF 393 renal cancer cells; 8, PC-3 prostate cancer cells; 9, MDA-MB-231 breast cancer cells.

[3] = test system: U251; assay: NCI DTP cell line screen (SRB), CNS Cancer; type: cell-based, human
Method: as §1, §2, §3, §4, §5

[4] = test system: BT-549; assay: NCI DTP cell line screen (SRB), Breast Cancer; type: cell-based

SMILES | pIC50 [1] | TGI [2] | Percent Growth ([2]; Log10 Concentration −4.0) [%] | Percent Growth ([2]; Log10 Concentration −5.0) [%] | Percent Growth ([2]; Log10 Concentration −6.0) [%] | Percent Growth ([2]; Log10 Concentration −7.0) [%] | Percent Growth ([2]; Log10 Concentration −8.0) [%] | TGI [3] | Percent Growth ([3]; Log10 Concentration −4.0) [%] | Percent Growth ([3]; Log10 Concentration −5.0) [%] | Percent Growth ([3]; Log10 Concentration −6.0) [%] | Percent Growth ([3]; Log10 Concentration −7.0) [%] | Percent Growth ([3]; Log10 Concentration −8.0) [%] | TGI [4] | Percent Growth ([4]; Log10 Concentration −4.0) [%] | Percent Growth ([4]; Log10 Concentration −5.0) [%] | Percent Growth ([4]; Log10 Concentration −6.0) [%] | Percent Growth ([4]; Log10 Concentration −7.0) [%] | Percent Growth ([4]; Log10 Concentration −8.0) [%]
N=C(N)Nc1ccc(-n2nc(C(F)(F)F)cc2-c2ccc3c(ccc4ccccc43)c2)cc1 [Compound 71, 4-[5-(2-Phenanthrenyl)-3-(trifluoromethyl)-1H-pyrazol-1-yl]-phenyl-guanidine] | 5.52 | – | – | – | – | – | – | – | – | – | – | – | – | – | – | – | – | – | –
NCC(=O)Nc1ccc(-n2nc(C(F)(F)F)cc2-c2ccc3c(ccc4ccccc43)c2)cc1 [Compound 70, 2-Amino-N-{4-[5-(2-phenanthrenyl)-3-(trifluoromethyl)-1H-pyrazol-1-yl]-phenyl}-acetamide] | – | 3.15E−06 | −39 | −59 | 59 | 94 | 87 | 2.64E−06 | −18 | −63 | 46 | 82 | 100 | 2.95E−06 | −60 | −71 | 63 | 86 | 90

Reference: patent US8541460B2, “PDK-1/Akt signaling inhibitors” (The Ohio State University, priority 2003, dated 2013)
